For orientation: IC50 means the concentration that gives 50% inhibition.

Where a name gives a salt, the structure may show the parent alone.

For the first assay, the target named is T1, soluble human BACE (Homo sapiens, UniProt P56817).
T1 construct: cells secreting human recombinant soluble BACE; made in house; conditioned medium
T1 sequence (P56817 46-457 limits assumed): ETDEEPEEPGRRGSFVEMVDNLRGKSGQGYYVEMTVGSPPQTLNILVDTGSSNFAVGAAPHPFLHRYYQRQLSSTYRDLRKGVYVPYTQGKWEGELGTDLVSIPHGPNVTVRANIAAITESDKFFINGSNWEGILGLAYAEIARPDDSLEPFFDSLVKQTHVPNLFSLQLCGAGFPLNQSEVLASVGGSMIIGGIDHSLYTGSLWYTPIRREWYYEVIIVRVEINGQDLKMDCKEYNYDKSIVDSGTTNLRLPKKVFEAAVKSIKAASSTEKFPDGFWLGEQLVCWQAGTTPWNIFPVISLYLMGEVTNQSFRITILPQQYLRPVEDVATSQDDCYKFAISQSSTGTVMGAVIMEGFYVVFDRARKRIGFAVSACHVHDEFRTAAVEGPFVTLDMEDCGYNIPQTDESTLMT
The assay can be described thus: BACE activity Cell Free Assay (ELISA of cleaved synthetic APP substrate). It is filed as biochemical.
Conditions: not given
On the technique in general: ELISA stands for enzyme-linked immunosorbent assay.
For the compound `CC1CC2(CCC(=O)N2c2cccc(F)c2)CCN1Cc1c[nH]c2ccc(Cl)cc12` (racemic) [Example 70, Racemic (5R,7S),(5S,7R)-8-[(5-chloro-1H-indol-3-yl)methyl]-1-(3-fluorophenyl)-7-methyl-1,8-diazaspiro[4.5]decan-2-one], the IC50 lay in the range of 10 to 100 µM.
On the same count and under the same terms, the result for `CC1CC2(C=CC(=O)N2c2cccc(F)c2)CCN1Cc1nc(-c2cccc(Cl)c2)cs1` (racemic) [Example 71, Racemic (5R,7S),(5S,7R)-8-{[4-(3-chlorophenyl)-1,3-thiazol-2-yl]methyl}-1-(3-fluorophenyl)-7-methyl-1,8-diazaspiro[4.5]dec-3-en-2-one] reads 10 to 100 µM; that for `COc1cccc(-c2csc(CN3CCC4(C=CC(=O)N4c4cccc(F)c4)CC3C)n2)c1` (racemic) [Example 72, Racemic (5R,7S),(5S,7R)-1-(3-fluorophenyl)-8-{[4-(3-methoxyphenyl)-1,3-thiazol-2-yl]methyl}-7-methyl-1,8-diazaspiro[4.5]dec-3-en-2-one], 10 to 100 µM; that for `COc1ccc(-c2csc(CN3CCC4(C=CC(=O)N4c4cccc(F)c4)CC3C)n2)cc1` (racemic) [Example 73, Racemic (5R,7S),(5S,7R)-1-(3-fluorophenyl)-8-{[4-(4-methoxyphenyl)-1,3-thiazol-2-yl]methyl}-7-methyl-1,8-diazaspiro[4.5]dec-3-en-2-one], 10 to 100 µM.
As for `CC1CC2(CCC(=O)N2c2cccc(F)c2)CCN1Cc1c[nH]c2cc(F)ccc12` (racemic) [Example 74, Racemic (5R,7S),(5S,7R)-8-[(6-fluoro-1H-indol-3-yl)methyl]-1-(3-fluorophenyl)-7-methyl-1,8-diazaspiro[4.5]decan-2-one], the IC50 fell in the range of 100 to 300 µM.
Same read-out and setting: then `COC(=O)Nc1ccc(CN2CCC3(CCC(=O)N3c3cccc(F)c3)CC2C)cc1` (racemic) [Example 75, Racemic methyl (4-{[(5R,7S),(5S,7R)-1-(3-fluorophenyl)-7-methyl-2-oxo-1,8-diazaspiro[4.5]dec-8-yl]methyl}phenyl)carbamate], with 100 to 300 µM.
Still for that read-out and setting: the result for `CC1CC2(CCC(=O)N2c2cccc(F)c2)CCN1Cc1c[nH]c2ccc(C#N)cc12` (racemic) [Example 76, Racemic 3-{[(5R,7S),(5S,7R)-1-(3-fluorophenyl)-7-methyl-2-oxo-1,8-diazaspiro[4.5]dec-8-yl]methyl}-1H-indole-5-carbonitrile] reads 100 to 300 µM; that for `CC1CC2(CCC(=O)N2c2cccc(F)c2)CCN1Cc1ccnn1CC(F)(F)F` (racemic) [Example 77, Racemic (5R,7S),(5S,7R)-1-(3-fluorophenyl)-7-methyl-8-{[1-(2,2,2-trifluoroethyl)-1H-pyrazol-5-yl]methyl}-1,8-diazaspiro[4.5]decan-2-one], 100 to 300 µM.
Same read-out and setting: the result for `CC1CC2(CCC(=O)N2c2cccc(F)c2)CCN1Cc1n[nH]c2ccc(Cl)cc12` (racemic) [Example 78, Racemic (5R,7S),(5S,7R)-8-[(5-chloro-1H-indazol-3-yl)methyl]-1-(3-fluorophenyl)-7-methyl-1,8-diazaspiro[4.5]decan-2-one] reads 100 to 300 µM; that for `CC1CC2(CCC(=O)N2c2cccc(F)c2)CCN1Cc1cccc(-n2cccn2)c1` (racemic) [Example 79, Racemic (5R,7S),(5S,7R)-1-(3-fluorophenyl)-7-methyl-8-[3-(1H-pyrazol-1-yl)benzyl]-1,8-diazaspiro[4.5]decan-2-one], 100 to 300 µM.
`CC1CC2(C=CC(=O)N2c2cccc(F)c2)CCN1Cc1ccc(OC(F)F)c(OC2CC2)c1` (racemic) [Example 80, Racemic (5R,7S),(5S,7R)-8-[3-(cyclopropyloxy)-4-(difluoromethoxy)benzyl]-1-(3-fluorophenyl)-7-methyl-1,8-diazaspiro[4.5]dec-3-en-2-one]: the concentration for half-maximal inhibition (IC50) fell in the range of 100 to 300 µM.
On the same count and under the same terms, then `CC1CC2(CCC(=O)N2c2cccc(F)c2)CCN1Cc1nc(-c2cccc(Cl)c2)cs1` (racemic) [Example 81, Racemic (5R,7S),(5S,7R)-8-{[4-(3-chlorophenyl)-1,3-thiazol-2-yl]methyl}-1-(3-fluorophenyl)-7-methyl-1,8-diazaspiro[4.5]decan-2-one], with 100 to 300 µM.
The same measure, in the same setting: the result for `COC1(OC)CC(c2cccc(CN3CCC4(C=CC(=O)N4c4cccc(F)c4)CC3C)c2)C1` (racemic) [Example 82, Racemic (5R,7S),(5S,7R)-8-[3-(3,3-dimethoxycyclobutyl)benzyl]-1-(3-fluorophenyl)-7-methyl-1,8-diazaspiro[4.5]dec-3-en-2-one] reads 100 to 300 µM; that for `CC1CC2(C=CC(=O)N2c2cccc(F)c2)CCN1Cc1c[nH]c(-c2ccccc2)n1` (racemic) [Example 83, Racemic (5R,7S),(5S,7R)-1-(3-fluorophenyl)-7-methyl-8-[(2-phenyl-1H-imidazol-4-yl)methyl]-1,8-diazaspiro[4.5]dec-3-en-2-one], 100 to 300 µM; that for `CC1CC2(CCC(=O)N2c2cccc(F)c2)CCN1Cc1c[nH]c2cc(C(F)(F)F)ccc12` (racemic) [Example 84, Racemic (5R,7S),(5S.7R)-1-(3-fluorophenyl)-7-methyl-8-{[6-(trifluoromethyl)-1H-indol-3-yl]methyl}-1,8-diazaspiro[4.5]decan-2-one], 100 to 300 µM.
Still for that read-out and setting: then `CC1CC2(C=CC(=O)N2c2cccc(F)c2)CCN1Cc1nc(-c2ccccc2Cl)cs1` (racemic) [Example 85, Racemic (5R,7S),(5S,7R)-8-{[4-(2-chlorophenyl)-1,3-thiazol-2-yl]methyl}-1-(3-fluorophenyl)-7-methyl-1,8-diazaspiro[4.5]dec-3-en-2-one], with 100 to 300 µM.
Compound `CC1CC2(CCC(=O)N2c2cccc(F)c2)CCN1Cc1cccc(OCc2nc(C3CC3)no2)c1` (racemic) [Example 86, Racemic (5R,7S),(5S,7R)-8-{3-[(3-cyclopropyl-1,2,4-oxadiazol-5-yl)methoxy]benzyl}-1-(3-fluorophenyl)-7-methyl-1,8-diazaspiro[4.5]decan-2-one] returned an IC50 of 100 to 300 µM.
As for `CC(C)Oc1cccc(CN2CC[C@]3(CC(F)C(=O)N3c3cccc(F)c3)C[C@@H]2C)c1` (mixture of isomers) [Example 90, Racemic (5R,7S)(5S,7R)-3-fluoro-1-(3-fluorophenyl)-8-(3-isopropoxybenzyl)-7˜methyl˜1,8˜diazaspiro[4.5]decan˜2˜one, formate salt], the half-inhibitory concentration (IC50) was in the range of 10 to 100 µM.
On the same count and under the same terms, then `CC(C)Oc1cccc(CN2CC[C@@]3(C[C@@H]2C)CC(F)(F)C(=O)N3c2cccc(F)c2)c1` (racemic) [Example 91, Racemic (5R,7S)(5S,7R)˜3,3˜difluoro˜1˜(3˜fluorophenyl)˜8˜(3˜isopropoxybenzyl)˜7˜methyl˜1,8˜diazaspiro[4.5]decan˜2˜one, formate salt], with 10 to 100 µM; and `CC(C)Oc1cccc(CN2CC[C@]3(CC(O)C(=O)N3c3cccc(F)c3)C[C@@H]2C)c1` (mixture of isomers) [Example 92, Racemic (3R/S,5R,7S)(3R/S,5S,7R)˜1˜(3˜fluorophenyl)˜3˜hydroxy˜8˜(3˜isopropoxybenzyl)-7-methyl-1,8-diazaspiro[4.5]decan-2-one, hydrochloride salt], with 10 to 100 µM.
On the same count and under the same terms, then `CC(C)Oc1cccc(CN2CC[C@]3(C=CC(=O)N3c3ccccn3)C[C@@H]2C)c1` [#101], with 10 to 100 µM.
For the compound `CC(C)Oc1cccc(CN2CC[C@]3(C=CC(=O)N3c3ccncc3)C[C@@H]2C)c1` [#102], the half-inhibitory concentration (IC50) fell in the range of 100 to 300 µM.
The same measure, in the same setting: then `Cc1cccc(N2C(=O)C=C[C@]23CCN(Cc2cccc(OC(C)C)c2)[C@@H](C)C3)n1` [#107], with 1 to 10 µM; and `Cc1ccnc(N2C(=O)C=C[C@]23CCN(Cc2cccc(OC(C)C)c2)[C@@H](C)C3)c1` [#108], with 1 to 10 µM; and `Cc1ccc(N2C(=O)C=C[C@]23CCN(Cc2cccc(OC(C)C)c2)[C@@H](C)C3)cn1` [#109], with 10 to 100 µM.
The same measure, in the same setting: the result for `Cc1cc(N2C(=O)C=C[C@]23CCN(Cc2cccc(OC(C)C)c2)[C@@H](C)C3)ccn1` [#110] reads 10 to 100 µM; that for `CC(C)Oc1cccc(CN2CC[C@]3(C=CC(=O)N3c3cccnc3)C[C@@H]2C)c1` [#111], 10 to 100 µM.
Still for that read-out and setting: the result for `COc1cc(F)cc(N2C(=O)C=C[C@]23CCN(Cc2cccc(OC(C)C)c2)[C@@H](C)C3)c1` [#112] reads 1 to 10 µM.
On to `CC(C)Oc1cccc(CN2CC[C@]3(C=CC(=O)N3c3cnn(C)c3)C[C@@H]2C)c1` [#113], for which the IC50 fell in the range of 10 to 100 µM.
Same read-out and setting: the result for `Cc1cncc(N2C(=O)C=C[C@]23CCN(Cc2cccc(OC(C)C)c2)[C@@H](C)C3)c1` [#114] reads 1 to 10 µM.
On the same count and under the same terms, then `Cc1cccnc1N1C(=O)C=C[C@]12CCN(Cc1cccc(OC(C)C)c1)[C@@H](C)C2` [#115], with 10 to 100 µM.
For `CC(C)Oc1cccc(CN2CC[C@]3(C=CC(=O)N3c3cncc(F)c3)C[C@@H]2C)c1` [#116], the IC50 lay in the range of 1 to 10 µM.
The same measure, in the same setting: the result for `CC(C)Oc1cccc(CN2CC[C@]3(C=CC(=O)N3c3cncc(Cl)c3)C[C@@H]2C)c1` [#117] reads 1 to 10 µM.
Still for that read-out and setting: then `CC(C)Oc1cccc(CN2CC[C@]3(C=CC(=O)N3c3cncc(C(F)(F)F)c3)C[C@@H]2C)c1` [#118], with 10 to 100 µM.
`CC(C)Oc1cccc(CN2CC[C@]3(C=CC(=O)N3c3cc(C(F)(F)F)ccn3)C[C@@H]2C)c1` [#119] came in with an IC50 of 100 to 300 µM.
Same read-out and setting: the result for `CC(C)Oc1cccc(CN2CC[C@]3(C=CC(=O)N3c3cncc(C#N)c3)C[C@@H]2C)c1` [#120] reads 10 to 100 µM.
Same read-out and setting: the result for `Cc1nc(N2C(=O)C=C[C@]23CCN(Cc2cccc(OC(C)C)c2)[C@@H](C)C3)cs1` [#121] reads 1 to 10 µM; that for `CC(C)Oc1cccc(CN2CC[C@]3(C=CC(=O)N3c3ccn(C)n3)C[C@@H]2C)c1` [#122], 10 to 100 µM; that for `CCn1cc(N2C(=O)C=C[C@]23CCN(Cc2cccc(OC(C)C)c2)[C@@H](C)C3)cn1` [#123], 100 to 300 µM.

Still in this assay, the particulars now being: Table 4; cell free, soluble human BACE, pH 4.5, 3 μM substrate; read-out: BACE Activity (Cell Free Assay IC50).
Consider `CC(C)Oc1cccc(CN2CC[C@]3(C=CC(=O)N3c3ccc(Cl)cn3)C[C@@H]2C)c1` [#104], for which the IC50 was 10 to 100 µM.
On the same count and under the same terms, the result for `Cc1ccc(N2C(=O)C=C[C@]23CCN(Cc2cccc(OC(C)C)c2)[C@@H](C)C3)nc1` [#105] reads 10 to 100 µM; that for `CC(C)Oc1cccc(CN2CC[C@]3(C=CC(=O)N3c3ccc(F)cn3)C[C@@H]2C)c1` [#124], 10 to 100 µM.

Values taken from patent US20110224231A1, “Novel Lactams as Beta Secretase Inhibitors” (Pfizer Inc., priority 2008, published 2011).
